Key:
[1] = target: mouse BACE-1 (Mus musculus, UniProt P56818); test: BACE-1 activity, fluorescent peptide substrate; type: biochemical; conditions: mean ± SD, four determinations; pH 4.5
Description: BACE-1 activity was assayed as previously reported. Briefly, the reaction mixtures contained 2.1 ng/µL mouse BACE-1 in 50 mM ammonium acetate buffer, pH 4.5 supplemented with 1 mM triton X-100, and the appropriate amount of the hybrid derivatives. The mixture was incubated for 10 min at room temperature and started by adding 100 nM final concentration of the fluorescent peptide substrate. The increase in fluorescence was followed kinetically using excitation and emission wavelengths of 320 and 420 nm, respectively. The rate was derived from the linear portion of the kinetics, usually in the first 30 min of the reaction. The known BACE-1 inhibitors I and IV were used as positive controls.

[2] = target: T1, Aβ 1–40 peptide (Homo sapiens, UniProt P05067); test: Aβ 1–40 self-aggregation inhibition assay (thioflavine T); type: biochemical; conditions: for IC50: 96 µM peptide, 37 °C, 24 h, mean ± SD, three determinations, read-out: IC50 on Aβ 1–40 fibril formation; for interference with fibril formation: up to 500 µM
T1 construct: Human β-amyloid peptide (1–40, cat. ab120479); purchased Abcam (Cambridge, UK) ab120479
T1 sequence (P05067 672-711): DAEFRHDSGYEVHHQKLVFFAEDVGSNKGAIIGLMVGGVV
Description: The percent inhibition due to the presence of the self-aggregation inhibition was calculated from the decrease in the fluorescence signal after the subtraction of the background fluorescence of a thioflavin T solution obtained in the same way.

[3] = target: T2, Acetylcholinesterase from Electrophorus electricus (AChE) (Electrophorus electricus, UniProt O42275); test: biochemical; conditions: for mechanism of inhibition on AChE: from Km and Vmax at different inhibitor concentrations; for IC50: mean ± SD, three determinations, pH 7.4, 500 μM acetylthiocholine
T2 construct: purchased Sigma-Aldrich (Milano, Italy)
T2 sequence (O42275 24-633): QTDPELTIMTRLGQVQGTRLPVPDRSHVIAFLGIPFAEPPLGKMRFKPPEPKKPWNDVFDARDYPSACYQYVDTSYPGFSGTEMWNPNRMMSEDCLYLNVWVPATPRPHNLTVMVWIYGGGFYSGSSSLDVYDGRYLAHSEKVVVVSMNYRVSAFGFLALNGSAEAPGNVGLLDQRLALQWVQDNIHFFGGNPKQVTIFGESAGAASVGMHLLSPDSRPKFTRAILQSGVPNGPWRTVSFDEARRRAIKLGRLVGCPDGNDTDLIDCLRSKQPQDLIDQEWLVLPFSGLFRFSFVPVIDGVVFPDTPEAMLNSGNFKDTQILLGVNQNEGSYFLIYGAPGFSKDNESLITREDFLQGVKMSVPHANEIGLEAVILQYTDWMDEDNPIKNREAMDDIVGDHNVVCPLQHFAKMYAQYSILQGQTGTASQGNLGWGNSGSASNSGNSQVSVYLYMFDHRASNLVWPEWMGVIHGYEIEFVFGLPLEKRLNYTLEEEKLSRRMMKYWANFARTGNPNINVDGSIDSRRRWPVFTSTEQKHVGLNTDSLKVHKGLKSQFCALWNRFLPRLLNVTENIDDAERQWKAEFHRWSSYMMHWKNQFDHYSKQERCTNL
Description: (§1) AChE or BuChE activity was assayed by the Ellman method as previously reported, using acetylthiocholine or butirrylthiocholine as a substrate, respectively. […] The reaction was started by the addition of 100 mU/mL AChE or BuChE, and the initial rate of the reaction was derived from the linear portion of the kinetics. […] Linear curve fits were obtained with the least-squares method, and the significance of the correlation was estimated from the squared correlation coefficient r^2.
(§2) The determination of the kinetic parameters Km and Vmax for both cholinesterase and monoamine oxidase activities were determined by measuring the initial velocity (v0) of substrate consumption/product formed at different substrate concentrations, as reported above. […] The Ki values obtained at different inhibitor concentrations were averaged to obtain a unique value of apparent Ki for each compound. Kinetic parameters and their corresponding standard errors were evaluated using a simple weighting method (Student’s t test).

[4] = target: T3, butirrylcholinesterase from equine serum (BuChE) (Equus caballus, UniProt P81908); test: biochemical; conditions: for inhibition type determined for BuChE: from Km and Vmax at different inhibitor concentrations; for IC50: mean ± SD, three determinations, pH 7.4, 500 μM butirrylthiocholine
T3 construct: butirrylcholinesterase from equine serum (BuChE); purchased Sigma-Aldrich (Milano, Italy); host or cells: equine serum
T3 sequence (P81908 whole entry): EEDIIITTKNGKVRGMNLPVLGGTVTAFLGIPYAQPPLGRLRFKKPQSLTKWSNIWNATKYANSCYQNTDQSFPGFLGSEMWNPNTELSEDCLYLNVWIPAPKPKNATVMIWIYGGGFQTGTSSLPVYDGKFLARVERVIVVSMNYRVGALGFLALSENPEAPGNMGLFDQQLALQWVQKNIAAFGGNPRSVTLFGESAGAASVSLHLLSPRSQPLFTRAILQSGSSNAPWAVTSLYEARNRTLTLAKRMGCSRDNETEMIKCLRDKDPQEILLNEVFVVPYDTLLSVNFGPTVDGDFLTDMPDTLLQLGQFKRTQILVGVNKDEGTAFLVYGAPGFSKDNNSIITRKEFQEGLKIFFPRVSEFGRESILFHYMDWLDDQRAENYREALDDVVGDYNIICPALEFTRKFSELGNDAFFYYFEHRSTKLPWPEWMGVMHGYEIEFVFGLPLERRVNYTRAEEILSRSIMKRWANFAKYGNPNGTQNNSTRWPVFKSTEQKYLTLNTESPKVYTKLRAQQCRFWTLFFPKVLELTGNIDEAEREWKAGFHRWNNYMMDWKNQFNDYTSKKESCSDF
Description: as §1, §2

[5] = test system: SH-SY5Y cells; test: Intracellular ROS (H2DCF-DA, cytofluorimetric analysis); type: cell-based, Human; conditions: Aβ peptide
Description: (§3) Human neuroblastoma SH-SY5Y cell line is the most widely used model to reproduce in vitro AD [37]. This cell line was acquired from the American Type Culture Collection (20099 Sesto San Giovanni, Milan, Italy) and maintained in culture in Dulbecco Modified’s Eagle’s Medium (DMEM) (supplemented with 100 U/mL penicillin, 100 µg/mL streptomycin, and 10% thermally inactivated bovine fetal serum). The cells were appropriately differentiated: a treatment with trans retinoid acid 10 µM for 5 days was chosen (Sigma Aldrich, 20151 Milan, Italy). The medium was changed every 2–3 days, and when the cell line reached about 50% confluence, it was supplemented with the mixtures (MIX 0, 1, 2, 3, 4, 5, 6, 7) for a further 24 h. At the end of the treatment, all appropriate tests were performed.
The probe used to measure intracellular reactive oxygen species (ROS) is the molecule H2DCF-DA [39]. In fact, after its simple diffusion in cells, H2DCF-DA is cleaved by cellular esterases, which are responsible for the loss of an acetate group, transforming it into H2DCF. This compound can no longer leave the cell and binds the ROS to the highly fluorescent compound DCF. In this way, the quantification of DCF provides the content of cellular ROS. […] The fluorescence was evaluated by cytometric analysis (FACS Accury, Becton Dickinson, Milan, Italy). […]

[6] = test system: SH-SY5Y cells; test: Malondialdehyde (MDA), TBA reaction; type: cell-based, Human; conditions: Aβ peptide
Description: Lipid peroxidation was evaluated by measuring the reaction products of MDA with thiobarbituric acid (TBA), which forms a colorimetric product proportional to the MDA present. The cells were placed in 10 cm diameter cell culture and the following day were treated as indicated. At the end of the treatment, the cells were scraped, and then the suspension was subjected to freezing/thawing cycles. Subsequently, 36 mM TBA dissolved in glacial acetic acid was added and the mixture heated for 60 min to 100 °C. The reaction was interrupted by placing the vials on ice for 10 min, and a spectrophotometric reading was carried out at 532 nm.

[7] = test system: SH-SY5Y cells; test: Cell viability by MTT assay; type: cell-based, Human
Description: as §3, with “The medium was changed every 2–3 days, and when the cell line reached about 50% confluence, it was supplemented with the mixtures (MIX 0, 1, 2, 3, 4, 5, 6, 7) for a further 24 h.” left out
The use of 3-(4,5-dimethyl[…])-2,5-diphenyltetrazole (MTT) bromide allowed the determination of cell viability for the presence of active enzymes within mitochondria in living cells. Mitochondrial […] can reduce MTT by producing colorimetric modification whose spectrophotometric measurement provides valuable information on cell viability. An amount of 8 × 10^3 cells/well was plated onto 96-well plates. After 24 h, the culture medium was replaced with fresh phenol-free medium containing a solution of MTT (0.5 mg/mL), and after 4 h of incubation, 100 μL 10% SDS was added to each well to solubilize the formazan crystals. The optical density was measured at wavelengths of 540 and 690 nm using a spectrophotometric reader (X MARK Spectrophotometer Microplate Bio-Rad).
Aβ 25 μM peptide was incubated alone or in the presence the specific amount of each hybrid compound [28] for 24 h at room temperature prior to the cell treatment. […]

[8] = test system: cleaved caspase 3 in SH-SY5Y cells; test: Cleaved caspase-3 expression, Western blotting; type: cell-based, Human; conditions: mixtures 24 h; Aβ peptide vs untreated cells
Description: The total lysates of SH-SY5Y cells were obtained from 6-multiwells. Lysates were taken after the cells were exposed to a preheated lysis buffer (80 °C) containing 50 mM of Tris-HCl (pH 6.8), 2% of SDS, and a protease inhibitor mixture and immediately boiled for 2 min. The protein concentration was determined using a DCA protein assay. After the addition of 0.05% bromophenol blue, 10% glycerol, and 2% β-mercaptoethanol, the samples were boiled again and loaded onto 12% SDS-polyacrylamide gels. Following electrophoresis, the polypeptides were transferred to nitrocellulose filters and blocked with TTBS/milk (TBS 1%, Tween 20, and nonfat dry milk 5%), and then the antibodies were used to reveal the respective antigens. Primary antibodies were incubated overnight at 4 °C, and, after washing, the filters were exposed to horseradish peroxidase-conjugated secondary antibody for 1 h at room temperature. The blots were developed using the chemiluminescence procedure. Experiments of immunoblot analysis were carried out in two ways: (a) electrophoresis of proteins obtained from cell extracts, as described; and (b) electrophoresis of proteins obtained by the formation of mixtures in the test tubes (in the absence of cells). […]

Sequence of mouse BACE-1 (P56818 46-501): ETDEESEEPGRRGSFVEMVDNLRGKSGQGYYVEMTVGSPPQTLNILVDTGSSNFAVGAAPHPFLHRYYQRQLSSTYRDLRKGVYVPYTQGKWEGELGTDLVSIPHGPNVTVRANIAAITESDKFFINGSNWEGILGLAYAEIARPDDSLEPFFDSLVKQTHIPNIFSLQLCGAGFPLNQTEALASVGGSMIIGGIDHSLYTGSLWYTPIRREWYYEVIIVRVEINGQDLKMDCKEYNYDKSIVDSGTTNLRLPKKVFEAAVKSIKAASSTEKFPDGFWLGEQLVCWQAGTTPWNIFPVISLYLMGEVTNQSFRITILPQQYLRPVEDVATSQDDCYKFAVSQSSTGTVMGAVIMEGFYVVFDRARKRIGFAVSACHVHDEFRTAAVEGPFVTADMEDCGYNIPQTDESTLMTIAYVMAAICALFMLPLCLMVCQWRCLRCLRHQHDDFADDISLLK

| Compound | IC50 [1] [µM] | IC50 [2] [µM] | mechanism of inhibition on AChE [3] | IC50 [3] [µM] | inhibition type determined for BuChE [4] | IC50 [4] [µM] | interference with fibril formation [2] | ROS in the cells ([5]; after 48 and 72 h) | ROS in the cells ([5]; after 24 h) | malondialdehyde accumulation ([6]; 48 and 72 h) | malondialdehyde accumulation ([6]; after 24 h) | reduction in cell vitality ([7]; 48 and 72 h, at the concentrations considered (0.1–100 μM)) | cell viability ([7]; Aβ peptide 0.1 μM) | cell viability ([7]; Aβ peptide 1, 10 and 100 μM) | expression of the cleaved form of caspase 3 [8] |
| --- | --- | --- | --- | --- | --- | --- | --- | --- | --- | --- | --- | --- | --- | --- | --- |
| CC(=O)Oc1ccc(CCOC(=O)C2CCN(Cc3ccccc3)CC2)cc1OC(C)=O [HT1a] | 16.9 ± 0.1 | 106 ± 11.1 | mixed | 4.3 ± 0.7 | mixed | 4.2 ± 0.4 |  |  |  |  |  |  |  |  |  |
| COc1cc(CCOC(=O)C2CCN(Cc3ccccc3)CC2)ccc1OC(C)=O [HT3a] | 19.7 ± 0.7 |  | uncompetitive | 2.6 ± 0.2 | noncompetitive | 4.3 ± 0.9 | did not interfere with fibril formation |  |  |  |  |  |  |  |  |
| O=C(OCCc1ccc(O)cc1)C1CCN(Cc2ccccc2)CC1 [HT4] | 52.2 ± 2.1 |  | uncompetitive | 4.9 ± 0.5 | noncompetitive | 22.9 ± 7.1 | did not interfere with fibril formation |  |  |  |  |  |  |  |  |
| O=C(OCCc1ccc(O)c(O)c1)C1CCN(Cc2ccccc2)CC1 [HT1] | 11.3 ± 1.2 | 375 ± 143 | uncompetitive | 6.5 ± 0.8 | mixed | 20.3 ± 2.4 |  |  |  |  |  |  |  |  |  |
| CC(=O)Oc1ccc(CCOC(=O)C2CCN(Cc3ccccc3)CC2)cc1 [HT4a] | 115 ± 5.1 |  | uncompetitive | 2.9 ± 0.2 | mixed | 4.1 ± 0.5 | did not interfere with fibril formation |  |  |  |  |  |  |  |  |
| O=C(OCCc1cc(O)c(O)cc1[N+](=O)[O-])C1CCN(Cc2ccccc2)CC1 [HT2] | 128 ± 42 | 418 ± 41.1 | noncompetitive | 3.8 ± 0.3 | mixed | 31.8 ± 5.7 |  |  |  |  |  |  |  |  |  |
| Aβ peptide: Human β-amyloid peptide (1–40, cat. ab120479) from Abcam |  |  |  |  |  |  |  | no longer detectable | significant increase in ROS | increasing accumulation of malondialdehyde | absent | more than 20% | ineffective | gradual and increasing reduction in cell viability | increased expression of caspase 3 |
| COc1cc(CCOC(=O)C2CCN(Cc3ccccc3)CC2)ccc1O [HT3] | 76.8 ± 3 |  | uncompetitive | 4 ± 0.4 | mixed | 7.2 ± 0.9 | did not interfere with fibril formation |  |  |  |  |  |  |  |  |

Source: article PMC10488223 (International Journal of Molecular Sciences, 2023)
